Measured values from patent US20090075949A1, “Use of dipyridamole in combination with antithrombotics for treatment and prevention of thromboembolic diseases” (priority 2004, published 2009).

Tests used:
[1] = ESPS-2; compared with low-dose aspirin / aspirin alone; cited from earlier work
[2] = arterial circulation of the brain, rabbit model; cited from earlier work
[3] = local formation of fibrin in experimental animals after angioplasty; type: in vivo
activated platelets = assay: Annexin V binding after incubation of cells with DIP; type: cell-based

## OCCN(CCO)c1nc(N2CCCCC2)c2nc(N(CCO)CCO)nc(N3CCCCC3)c2n1 [dipyridamole, 2,6-bis(diethanolamino)-4,8-dipiperidino-pyrimido[5,4-d]pyrimidine]
[1]
  reduction of stroke risk: as effective as low-dose aspirin
[2]
  thrombus formation: reduce thrombus formation
[3]; experimental animals after angioplasty
  inhibition of fibrin formation versus full dose heparin: exceeds the level of inhibition by full dose anticoagulant treatment with heparin
[3]; pretreatment, arterial tree, high flow rate
  local formation of fibrin: reduces the local formation of fibrin significantly
Activated platelets; activated platelets
  binding of Annexin V to the surface of activated platelets: reduce the binding of Annexin V
Activated platelets; incubation of cells, compared to pre-incubation, patients with anti-platelet therapy resistance (ASA or clopidogrel)
  Annexin V binding sites: significant reduction
